We go through 16 compounds from PubChem BioAssay (NCI).

Some test systems named below: EKVX NSCLC; 786-0 renal; SNB-19 CNS; TK-10 renal; KM12 colon; SK-MEL-2 melanoma; MALME-3M melanoma; MCF7 breast; MDA-MB-231 breast.
Assay in all cases: inhibition of tumour cell growth, NCI panel, 48 h

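Briefly, cells in 96-well plates were exposed to five compound concentrations for 48 h, and endpoints were estimated by linear interpolation. The concentration for 50% growth inhibition is given as GI50. TGI: total growth inhibition.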

Turning to `CCC[CH2][Sn]([CH2]CCC)([O]c1cccc2cccnc12)[O]c1cccc2cccnc12`, the GI50 was 0.34 µM in the assay on EKVX NSCLC, 0.237 µM with 786-0 renal, 0.312 µM in the assay on SNB-19 CNS and 0.492 µM in the assay on TK-10 renal. Further, the TGI in the assay with EKVX NSCLC came to 1.22 µM; in the assay on 786-0 renal, 0.607 µM; with SNB-19 CNS, 0.873 µM; with TK-10 renal it was 1.66 µM.
Take `CCOC(=O)C1SC(=Nc2ccc(OC)c(OC)c2)N=C1C` (stereo unspecified): the TGI was greater than 100 µM in the assay with EKVX NSCLC; greater than 100 µM with KM12 colon; 90.2 µM with 786-0 renal; greater than 100 µM in the assay on SNB-19 CNS; greater than 100 µM in the assay on TK-10 renal; greater than 100 µM in the assay with SK-MEL-2 melanoma. Further, in the assay with MALME-3M melanoma, the TGI turned out to be 83.4 µM.
For `COC(=O)c1cc(C(=O)OC)c(CC(=O)C(=O)NC2C3CC4CC(C3)CC2C4)nc1CC(=O)C(=O)NC1C2CC3CC(C2)CC1C3` (stereo unspecified), the TGI with EKVX NSCLC, with KM12 colon, in the assay with 786-0 renal, in the assay on SNB-19 CNS, in the assay with TK-10 renal and in the assay with SK-MEL-2 melanoma was greater than 100 µM in each case. The compound further yielded a TGI in the assay on MALME-3M melanoma greater than 100 µM.
On to `N#CC12CCC1C1CCCCC12N1CCSCC1` (stereo unspecified), for which the TGI in the assay on KM12 colon, in the assay on 786-0 renal, in the assay with SNB-19 CNS and with SK-MEL-2 melanoma was greater than 100 µM throughout.
With `COc1cc(OC)c(C(=O)c2cccs2)cc1N`, the TGI in the assay with EKVX NSCLC, with KM12 colon, in the assay with 786-0 renal, in the assay on SNB-19 CNS, with TK-10 renal and in the assay on SK-MEL-2 melanoma was greater than 100 µM each time. This compound also had a TGI in the assay on MALME-3M melanoma greater than 100 µM.
Consider `N#CC(C(=O)C(=O)Nc1ccccc1)c1ccccc1` (stereo unspecified), for which the TGI in the assay with EKVX NSCLC, in the assay on KM12 colon, in the assay with 786-0 renal, in the assay on SNB-19 CNS, in the assay with TK-10 renal and in the assay with SK-MEL-2 melanoma was greater than 100 µM each time. In the assay with MALME-3M melanoma, this compound gave a TGI greater than 100 µM.
For the compound `Cc1n[nH]c(=S)n(C)c1=S`, the TGI in the assay on EKVX NSCLC, in the assay on 786-0 renal, in the assay with SNB-19 CNS, with TK-10 renal, in the assay with SK-MEL-2 melanoma and in the assay with MALME-3M melanoma was greater than 100 µM each time.
In the case of `COc1ccc(/C(=N\NC(=O)NN)C(c2ccc(OC)cc2)C2(O)C(=O)Nc3c(Cl)cc(Cl)cc32)cc1` (stereo unspecified), the TGI in the assay on EKVX NSCLC, in the assay with KM12 colon, in the assay with 786-0 renal, in the assay on SNB-19 CNS, in the assay with TK-10 renal and in the assay on SK-MEL-2 melanoma was greater than 100 µM each time. In the assay with MALME-3M melanoma, this compound yielded a TGI greater than 100 µM.
As for `COc1ccc(/C=C2\CN(C(=O)C(Cl)Cl)C/C(=C\c3ccc(OC)cc3)C2=O)cc1`, the GI50 is 0.332 µM in the assay on KM12 colon, 1.88 µM in the assay on 786-0 renal, 0.296 µM in the assay on MCF7 breast and 1.92 µM in the assay on MALME-3M melanoma. Further, the TGI with KM12 colon turned out to be 1.16 µM; with 786-0 renal, 3.86 µM; in the assay with MCF7 breast, 1.51 µM; in the assay with MALME-3M melanoma, 4.61 µM.
`C=C(CO)CC(O)c1cc(OC)ccc1OC` (stereo unspecified): the TGI with EKVX NSCLC, with KM12 colon, with 786-0 renal, in the assay on SNB-19 CNS, in the assay on TK-10 renal and in the assay on SK-MEL-2 melanoma was greater than 100 µM throughout. This compound displayed a TGI in the assay on MALME-3M melanoma greater than 100 µM.
Consider `COC(=O)c1ccccc1N(C(=O)c1ccccc1)c1ccccc1C`, for which the TGI with EKVX NSCLC, with KM12 colon, with 786-0 renal, with SNB-19 CNS, in the assay on TK-10 renal and in the assay on SK-MEL-2 melanoma was greater than 100 µM each time. In addition, the TGI with MALME-3M melanoma is greater than 100 µM.
With `O=C(O)C[C@@H](Cl)[C@H](NC(=O)OCc1ccccc1)C(=O)O`, the TGI in the assay on EKVX NSCLC, in the assay with KM12 colon, in the assay with 786-0 renal, in the assay with SNB-19 CNS, with TK-10 renal and in the assay with SK-MEL-2 melanoma was greater than 100 µM each time. Further, in the assay with MALME-3M melanoma, the TGI is greater than 100 µM.
`O=C1/C=C/[C@@H](O)[C@@H]2C[C@@H](O)C[C@H]2/C=C/CCC[C@H](CCc2cccc3ccccc23)O1`: the GI50 in the assay on MDA-MB-231 breast was 0.0464 µM; with EKVX NSCLC, 0.0816 µM; in the assay on KM12 colon it was 0.032 µM; with 786-0 renal it was 0.02 µM; in the assay on MCF7 breast, 0.0753 µM; in the assay on SNB-19 CNS it was 0.0923 µM. The GI50 with TK-10 renal was 0.0861 µM; with SK-MEL-2 melanoma it was 0.175 µM; in the assay with MALME-3M melanoma, 0.036 µM. For the same compound, the TGI with MDA-MB-231 breast came out at 0.119 µM; with EKVX NSCLC, 14 µM; in the assay with KM12 colon, 0.959 µM; with 786-0 renal, 0.0372 µM; in the assay with MCF7 breast it was 0.377 µM; with SNB-19 CNS, 22 µM. Also, the TGI in the assay with TK-10 renal is 0.328 µM; with SK-MEL-2 melanoma, 0.521 µM; in the assay on MALME-3M melanoma, 0.245 µM.
Turning to `O=C(O)/C(Cl)=C(\Cl)C(=O)c1ccccc1`, the TGI with EKVX NSCLC, with KM12 colon, with 786-0 renal, in the assay with SNB-19 CNS, with TK-10 renal and with SK-MEL-2 melanoma was greater than 100 µM in each case. Also, the TGI in the assay with MALME-3M melanoma was greater than 100 µM.
As to `O=C1C(=O)N(c2ccc(Cl)cc2)C(=O)C(=O)C1c1nc2ccccc2o1`, the TGI with EKVX NSCLC, with KM12 colon, in the assay on 786-0 renal, in the assay on SNB-19 CNS, in the assay on TK-10 renal and with SK-MEL-2 melanoma was greater than 100 µM each time. This compound gave a TGI in the assay with MALME-3M melanoma greater than 100 µM.
As to `CCCCCOCC(O)CO` (stereo unspecified), the TGI in the assay with EKVX NSCLC, with KM12 colon, in the assay on 786-0 renal, in the assay with SNB-19 CNS, in the assay with TK-10 renal and with SK-MEL-2 melanoma was greater than 100 µM in each case. Also, the TGI in the assay with MALME-3M melanoma is greater than 100 µM.
